Source: patent publication US5723606A, “Condensed benzazepine derivative and pharmaceutical composition thereof” (priority 1993, dated 1998)
Structures can show the parent of a compound that is named as a salt. Where two headings read alike, the source gives them in different places.

Experiments:
[1] = target: T1, arginine vasopressin V1 receptor (Rattus norvegicus, UniProt P30560); experiment: V1 receptor binding assay; details: for antagonism on V1 receptor (in words): compared with OPC-31260 and OPC-21268, cf. Table 1
T1 construct: A rat liver membrane sample was prepared; from tissue; host or cells: rat liver membranes
Procedure: Usefulness of the compounds of the present invention was confirmed by the following tests. (1) V1 receptor binding assay
A rat liver membrane sample was prepared in accordance with the method of Nakamura et al. (J. Biol. Chem., 258, 9283 (1983)), and [^3 H]-Arg-vasopressin (2 nM, specific activity =75.8 Ci/mmol), 70 μg of the membrane sample and each drug to be tested (10^-8 to 10^-4 M) were incubated at 30° C. for 30 minutes in 250 μl of 100 mM Tris-HCl buffer (pH 8.0) containing 5 mM magnesium chloride, 1mM ethylenediaminetetraacetic acid (EDTA) and 0.1% bovine serum albumin (BSA). Thereafter, the incubation solution was sucked off using a cell harvester and free ligand and excess buffer were removed by passing the reaction mixture through a glass filter (GF/B), thereby trapping receptor-bound labeled ligand on the glass filter. The glass filter was taken out, thoroughly dried and then mixed with a liquid scintillation cocktail, and the amount of the membrane-bound [^3 H]-vasopressin was measured using a liquid scintillation counter to calculate the inhibition ratio by the following formula. [formula] C1 : amount of [^3 H]-vasopressin bound to the membrane in the coexistence of known amount of each drug to be tested and [^3 H]-vasopressin
C0 : amount of [^3 H]-vasopressin bound to the membrane when the drug to be tested was not added
B1 : amount of [^3 H]-vasopressin bound to the membrane in the presence of excess vasopressin (10^-6 M)
[formula] [L]: concentration of radioactive ligand KD: dissociation constant calculated from Scatchard plot
Negative logarithm of the thus calculated value was used as pKi value.

[2] = target: arginine vasopressin V2 receptor (Oryctolagus cuniculus, UniProt G1TA00); experiment: V2 receptor binding assay; parameters: species or system rabbit; details: for antagonism on V2 receptor (in words): compared with OPC-31260 and OPC-21268, cf. Table 1
V2 receptor = experiment: V2 antagonism (water diuresis) in conscious rats (oral administration); assay type: in vivo, rat
Procedure: (4) V2 antagonism (water diuresis) in conscious rats (oral administration)
Each compound to be tested was suspended in 0.5% methylcellulose aqueous solution and orally administered in a dose of 3 mg/kg to male Wister rats (body weight, 270 to 300 g) which had been subjected to fasting with no water for 16 to 20 hours. Using a metabolic cage, urine samples were collected just after the administration of each test sample and until 4 hours after the administration to measure the amount of urine.

V1 receptor = experiment: V1 antagonism in conscious rats (oral administration); assay type: in vivo, rat; details: 1 mg/kg oral, from 30 minutes to 6 hours after administration, AVP 30 mU/kg i.v.
[3] = rat liver membrane, [3H]-Arg-vasopressin 2 nM, read-out: Binding activity on arginine vasopressin V1 receptor (pki) (converted)

T1 sequence (P30560 whole entry): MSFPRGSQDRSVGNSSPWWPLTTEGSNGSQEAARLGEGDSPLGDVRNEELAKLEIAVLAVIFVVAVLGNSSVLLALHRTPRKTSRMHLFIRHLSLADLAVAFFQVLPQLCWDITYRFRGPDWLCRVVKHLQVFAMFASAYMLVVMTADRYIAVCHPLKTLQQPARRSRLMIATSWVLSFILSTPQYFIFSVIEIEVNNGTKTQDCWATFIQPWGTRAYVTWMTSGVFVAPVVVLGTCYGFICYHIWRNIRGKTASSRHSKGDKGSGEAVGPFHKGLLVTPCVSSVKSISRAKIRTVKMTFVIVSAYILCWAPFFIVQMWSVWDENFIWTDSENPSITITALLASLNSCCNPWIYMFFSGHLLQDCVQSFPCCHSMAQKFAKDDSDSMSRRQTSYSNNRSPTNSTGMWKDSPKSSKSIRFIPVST
Chain of arginine vasopressin V2 receptor (G1TA00 78-446): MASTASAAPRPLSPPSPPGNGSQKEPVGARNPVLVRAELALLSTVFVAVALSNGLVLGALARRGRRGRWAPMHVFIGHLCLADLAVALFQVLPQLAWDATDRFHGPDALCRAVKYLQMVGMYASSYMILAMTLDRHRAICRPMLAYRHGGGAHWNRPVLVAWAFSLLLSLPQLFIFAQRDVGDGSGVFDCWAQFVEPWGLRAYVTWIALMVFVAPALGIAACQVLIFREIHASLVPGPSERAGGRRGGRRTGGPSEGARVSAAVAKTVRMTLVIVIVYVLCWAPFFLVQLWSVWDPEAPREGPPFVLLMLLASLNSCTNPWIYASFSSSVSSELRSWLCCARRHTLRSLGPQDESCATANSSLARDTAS

Cc1ccccc1C(=O)Nc1ccc(C(=O)N2CCCC(N(C)C)c3ccccc32)cc1 (centres unmarked) [(1), reference compound]
Binding activity on arginine vasopressin V1 receptor (pki) ([1]; rat liver membrane, [3H]-Arg-vasopressin 2 nM): 6.71 | Binding activity on arginine vasopressin V2 receptor (pki) ([2]; rabbit renal medulla membrane, [3H]-Arg-vasopressin 2 nM): 8.01 | amount of urine relative to the solvent-administered group (V2 receptor; 3 mg/kg oral, from 2 hours to 4 hours after administration, fasted conscious rats): almost the same as that in the solvent-administered group | amount of urine relative to the solvent-administered group (V2 receptor; po, 3 mg/kg, 2 h): 11 times

Nc1nc2c(s1)CCN(C(=O)c1ccc(NC(=O)c3ccccc3-c3ccccc3)cc1)c1ccccc1-2 [Example 1, 4'-[(2-amino-5,6-dihydro-4H-thiazolo[5,4-d][1]benzazepin-6-yl)carbonyl]-2-phenylbenzanilide hydrobromate]
Ki [1, 3]: 4.68 nM

N=C(N)Nc1nc2c(s1)CCN(C(=O)c1ccc(NC(=O)c3ccccc3-c3ccccc3)cc1)c1ccccc1-2 [Example 2, 4'-[(2-guanidino-5,6-dihydro-4H-thiazolo[5,4-d][1]benzazepin-6-yl)carbonyl]-2-phenylbenzanilide hydrobromate]
Ki [1, 3]: 1.51 nM

Cc1ccc(-c2ccccc2C(=O)Nc2ccc(C(=O)N3CCc4sc(NC(=N)N)nc4-c4ccccc43)cc2)cc1 [Example 4, 4'-[(2-guanidino-5,6-dihydro-4H-thiazolo[5,4-d][1]benzazepin-6-yl)carbonyl]-2-(4-methylphenyl)benzanilide hydrobromate]
Ki [1, 3]: 4.37 nM

Cc1nc(Cc2nc3c(s2)CCN(C(=O)c2ccc(NC(=O)c4ccccc4-c4ccccc4)cc2)c2ccccc2-3)c[nH]1 [Example 6, 4'-[[2-[4-(2-methylimidazolyl)methyl]-5,6-dihydro-4H-thiazolo[5,4-d][1]benzazepin-6-yl)carbonyl]-2-phenylbenzanilide.2HCl]
Ki [1, 3]: 11.2 nM

O=C(Nc1ccc(C(=O)N2CCc3sc(Cc4cccnc4)nc3-c3ccccc32)cc1)c1ccccc1-c1ccccc1 [Example 8, 4'-[[2-(3-pyridylmethyl)-5,6-dihydro-4H-thiazolo[5,4-d][1]benzazepin-6-yl)carbonyl]-2-phenylbenzanilide hydrochloride]
Ki [1, 3]: 18.2 nM

CN(C)CCNc1nc2c(s1)CCN(C(=O)c1ccc(NC(=O)c3ccccc3-c3ccccc3)cc1)c1ccccc1-2 [Example 10, 4'-[(2-dimethylaminoethylamino-5,6-dihydro-4H-thiazolo[5,4-d][1]benzazepin-6-yl)carbonyl]-2-phenylbenzanilide.2 HCl]
Ki [1, 3]: 2.45 nM

CN(C)CCCc1nc2c(s1)CCN(C(=O)c1ccc(NC(=O)c3ccccc3-c3ccccc3)cc1)c1ccccc1-2 [Example 12, 4'-[[2-(3-dimethylaminopropyl)-5,6-dihydro-4H-thiazolo[5,4-d][1]benzazepin-6-yl)carbonyl]-2-phenylbenzanilide hydrochloride]
Ki [1, 3]: 3.02 nM

NCCc1nc2c(s1)CCN(C(=O)c1ccc(NC(=O)c3ccccc3-c3ccccc3)cc1)c1ccccc1-2 [Example 15, 4'-[(2-aminoethyl-5,6-dihydro-4H-thiazolo[5,4-d][1]benzazepin-6-yl)carbonyl]-2-phenylbenzanilide hydrochloride]
Ki [1]: 1.23 nM

CC(C)O.Cl.NCC(=O)Nc1nc2c(s1)CCN(C(=O)c1ccc(NC(=O)c3ccccc3-c3ccccc3)cc1)c1ccccc1-2 [Example 17, 4'-[(2-glycylamino-5,6-dihydro-4H-thiazolo[5,4-d][1]benzazepin-6-yl)carbonyl]-2-phenylbenzanilide 2-propylalcohol hydrochloride]
antagonism on V1 receptor (in words) [1]: excellent antagonisms | Ki [1, 3]: 0.912 nM | antagonism on V2 receptor (in words) [2]: excellent antagonisms

Cc1nc2c(o1)-c1ccccc1N(C(=O)c1ccc(NC(=O)c3ccccc3-c3ccccc3)cc1)CC2 [Example 18(1), 4'-[(2-Methyl-5,6-dihydro-4H-oxazolo[4,5-d][1]benzazepin-6-yl)carbonyl]-2-phenylbenzanilide]
Ki [1, 3]: 4.27 nM

Cc1nc2c([nH]1)-c1ccccc1N(C(=O)c1ccc(NC(=O)c3ccccc3-c3ccccc3)cc1)CC2.Cl [Example 18(2), 4'-[(2-methyl-1,4,5,6-tetrahydroimidazo[4,5-d][1]benzazepin-6-yl)carbonyl]-2-phenylbenzanilide hydrochloride]
Ki [1]: 0.891 nM | antagonism on V1 receptor (in words) [1]: excellent antagonisms | Pressure increase by AVP (diastolic blood pressure, pre-dose increase = 100%) (V1 receptor): ≤ 50% | antagonism on V2 receptor (in words) [2]: excellent antagonisms | amount of urine relative to the solvent-administered group (V2 receptor; po, 3 mg/kg): 8-10 times | amount of urine relative to the solvent-administered group (V2 receptor; po, 3 mg/kg, 2 h): 47-95 times

CCc1nc2c([nH]1)-c1ccccc1N(C(=O)c1ccc(NC(=O)c3ccccc3-c3ccccc3)cc1)CC2.Cl [Example 20, 4'-[(2-ethyl-1,4,5,6-tetrahydroimidazo[4,5-d][1]benzazepin-6-yl)carbonyl]-2-phenylbenzanilide hydrochloride]
antagonism on V1 receptor (in words) [1]: excellent antagonisms | Ki [1, 3]: 0.661 nM | antagonism on V2 receptor (in words) [2]: excellent antagonisms | amount of urine relative to the solvent-administered group (V2 receptor; po, 3 mg/kg): 8-10 times | amount of urine relative to the solvent-administered group (V2 receptor; po, 3 mg/kg, 2 h): 47-95 times

CCCc1nc2c([nH]1)-c1ccccc1N(C(=O)c1ccc(NC(=O)c3ccccc3-c3ccccc3)cc1)CC2.Cl [Example 21, 4'-[(2-propyl-1,4,5,6-tetrahydroimidazo[4,5-d][1]benzazepin-6-yl)carbonyl]-2-phenylbenzanilide hydrochloride]
antagonism on V1 receptor (in words) [1]: excellent antagonisms | Ki [1, 3]: 1.82 nM | Pressure increase by AVP (diastolic blood pressure, pre-dose increase = 100%) (V1 receptor): ≤ 50% | antagonism on V2 receptor (in words) [2]: excellent antagonisms | amount of urine relative to the solvent-administered group (V2 receptor; po, 3 mg/kg): 8-10 times | amount of urine relative to the solvent-administered group (V2 receptor; po, 3 mg/kg, 2 h): 47-95 times

Cl.O=C(Nc1ccc(C(=O)N2CCc3nc(C4CC4)[nH]c3-c3ccccc32)cc1)c1ccccc1-c1ccccc1 [Example 23, 4'-[(2-cyclopropyl-1,4,5,6-tetrahydroimidazo[4,5-d][1]benzazepin-6-yl)carbonyl]-2-phenylbenzanilide hydrochloride]
antagonism on V1 receptor (in words) [1]: excellent antagonisms | Pressure increase by AVP (diastolic blood pressure, pre-dose increase = 100%) (V1 receptor): ≤ 50% | antagonism on V2 receptor (in words) [2]: excellent antagonisms | amount of urine relative to the solvent-administered group (V2 receptor; po, 3 mg/kg): 8-10 times | amount of urine relative to the solvent-administered group (V2 receptor; po, 3 mg/kg, 2 h): 47-95 times

Cc1nc2c([nH]1)-c1ccccc1N(C(=O)c1ccc(NC(=O)c3ccccc3C)cc1)CC2 [Example 24, 2-methyl-4'-[(2-methyl-1,4,5,6-tetrahydroimidazo[4,5-d][1]benzazepin-6-yl)carbonyl]benzanilide hydrochloride]
Ki [1, 3]: 17 nM

Cc1nc2c([nH]1)-c1ccccc1N(C(=O)c1ccc(NC(=O)c3ccccc3OC(C)C)cc1)CC2 [Example 27, 2-isopropoxy-4'-[(2-methyl-1,4,5,6-tetrahydroimidazo[4,5-d][1]benzazepin-6-yl)carbonyl]benzanilide hydrochloride]
Ki [1, 3]: 6.17 nM

NCCCCc1nc2c([nH]1)-c1ccccc1N(C(=O)c1ccc(NC(=O)c3ccccc3-c3ccccc3)cc1)CC2 [Example 37, 4'-[[2-(4-aminobutyl)-1,4,5,6-tetrahydroimidazo[4,5-d][1]benzazepin-6-yl]carbonyl]-2-phenylbenzanilide.2 HCl]
antagonism on V1 receptor (in words) [1]: excellent antagonisms | Ki [1, 3]: 0.324 nM | antagonism on V2 receptor (in words) [2]: excellent antagonisms

Cc1nc2c([nH]1)-c1ccccc1N(C(=O)c1ccc(NC(=O)C3(c4ccccc4)CCCC3)cc1)CC2 [Example 38, N-[4-[(2-methyl-1,4,5,6-tetrahydroimidazo[4,5-d][1]benzazepin-6-yl)carbonyl]phenylcyclopentanecarboxamido hydrochloride]
Ki [1, 3]: 5.75 nM
